System: Xylella fastidiosa (Xf)
Assay type: cell-based
Conditions: single metabolite from Cochliobolus sp. extract, identified by NMR and MS

With `C/C=C/c1cc2c(c(=O)o1)C(=O)[C@@H](O)[C@H](C)O2` [radicinin] the “anti-Xf inhibitory activity of the isolated metabolite” value was “inhibitory activity”.

Reference: patent US10238118B2 (priority 2011, dated 2019)
